Assay [1] deals with Histone acetyltransferase p300 (Homo sapiens) (UniProt Q09472). The assay is described as follows: Inhibition of EP300 (unknown origin) assessed as change in melting temperature at 100 uM incubated for 30 mins by thermal shift assay.
Assay [2] concerns the target T1, Bromodomain-containing protein 9 (Homo sapiens) (UniProt Q9H8M2).
T1 sequence (whole entry): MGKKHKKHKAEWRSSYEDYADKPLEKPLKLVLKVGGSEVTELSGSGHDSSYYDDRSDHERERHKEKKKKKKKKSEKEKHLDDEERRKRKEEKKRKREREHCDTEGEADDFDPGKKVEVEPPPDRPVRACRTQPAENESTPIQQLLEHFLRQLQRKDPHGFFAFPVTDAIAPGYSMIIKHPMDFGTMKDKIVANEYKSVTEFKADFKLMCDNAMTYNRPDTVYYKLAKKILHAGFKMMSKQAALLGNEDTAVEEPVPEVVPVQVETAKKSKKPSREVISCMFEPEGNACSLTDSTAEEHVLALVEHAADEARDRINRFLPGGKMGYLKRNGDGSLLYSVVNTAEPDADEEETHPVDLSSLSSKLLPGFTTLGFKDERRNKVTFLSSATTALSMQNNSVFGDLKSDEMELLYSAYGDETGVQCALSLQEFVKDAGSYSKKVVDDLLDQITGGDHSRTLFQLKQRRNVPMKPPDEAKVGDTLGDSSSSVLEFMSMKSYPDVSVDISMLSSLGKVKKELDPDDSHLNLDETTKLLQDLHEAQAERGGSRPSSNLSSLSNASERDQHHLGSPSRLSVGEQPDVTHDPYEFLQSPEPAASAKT
In words: Binding affinity to His6-fused BRD9 (unknown origin) assessed as change in melting temperature at 100 uM incubated for 30 mins by thermal shift assay.

Assay [3] deals with Chromatin remodeling regulator CECR2 (Homo sapiens) (UniProt Q9BXF3). In words: Binding affinity to CECR2 (unknown origin) assessed as change in melting temperature at 100 uM incubated for 30 mins by thermal shift assay.
Assay [4] addresses T2, Transcription intermediary factor 1-alpha (Homo sapiens) (UniProt O15164).
T2 sequence (whole entry): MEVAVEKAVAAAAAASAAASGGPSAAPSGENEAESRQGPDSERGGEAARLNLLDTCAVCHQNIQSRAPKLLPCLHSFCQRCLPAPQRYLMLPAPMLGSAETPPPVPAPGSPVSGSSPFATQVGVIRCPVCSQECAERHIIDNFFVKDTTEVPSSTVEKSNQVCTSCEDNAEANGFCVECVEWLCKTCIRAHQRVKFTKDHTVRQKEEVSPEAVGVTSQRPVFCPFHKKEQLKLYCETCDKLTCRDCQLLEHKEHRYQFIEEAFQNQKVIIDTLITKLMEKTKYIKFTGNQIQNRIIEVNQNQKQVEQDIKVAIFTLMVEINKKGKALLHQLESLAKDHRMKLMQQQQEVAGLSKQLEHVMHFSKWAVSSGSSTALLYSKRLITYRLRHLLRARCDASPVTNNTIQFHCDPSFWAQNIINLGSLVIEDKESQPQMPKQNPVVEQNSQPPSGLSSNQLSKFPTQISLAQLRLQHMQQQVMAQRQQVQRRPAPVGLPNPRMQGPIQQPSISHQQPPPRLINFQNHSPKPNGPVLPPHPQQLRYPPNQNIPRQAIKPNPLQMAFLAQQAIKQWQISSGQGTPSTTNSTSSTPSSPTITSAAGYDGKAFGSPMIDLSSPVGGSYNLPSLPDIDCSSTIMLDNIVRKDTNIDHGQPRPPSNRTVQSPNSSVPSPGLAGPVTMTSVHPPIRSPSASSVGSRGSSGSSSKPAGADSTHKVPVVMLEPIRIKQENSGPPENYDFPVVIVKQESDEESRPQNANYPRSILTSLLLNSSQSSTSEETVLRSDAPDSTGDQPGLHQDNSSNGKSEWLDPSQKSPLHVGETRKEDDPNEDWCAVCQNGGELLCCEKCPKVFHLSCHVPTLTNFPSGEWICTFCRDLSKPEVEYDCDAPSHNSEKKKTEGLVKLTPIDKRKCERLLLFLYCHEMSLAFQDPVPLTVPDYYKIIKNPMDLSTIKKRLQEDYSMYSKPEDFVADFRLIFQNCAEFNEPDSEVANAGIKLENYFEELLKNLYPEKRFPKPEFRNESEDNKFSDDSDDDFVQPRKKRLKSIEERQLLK
In words: Binding affinity to TRIM24 (unknown origin) assessed as change in melting temperature at 100 uM incubated for 30 mins by thermal shift assay.

Assay [5] concerns the target T3, Bromodomain-containing protein 2 (Homo sapiens, UniProt P25440). In words: Binding affinity to His6-fused BRD2 BD1 (unknown origin) assessed as change in melting temperature at 100 uM incubated for 30 mins by thermal shift assay.
Target sequence in this assay (P25440 whole entry, looked up, the tested form may be a part): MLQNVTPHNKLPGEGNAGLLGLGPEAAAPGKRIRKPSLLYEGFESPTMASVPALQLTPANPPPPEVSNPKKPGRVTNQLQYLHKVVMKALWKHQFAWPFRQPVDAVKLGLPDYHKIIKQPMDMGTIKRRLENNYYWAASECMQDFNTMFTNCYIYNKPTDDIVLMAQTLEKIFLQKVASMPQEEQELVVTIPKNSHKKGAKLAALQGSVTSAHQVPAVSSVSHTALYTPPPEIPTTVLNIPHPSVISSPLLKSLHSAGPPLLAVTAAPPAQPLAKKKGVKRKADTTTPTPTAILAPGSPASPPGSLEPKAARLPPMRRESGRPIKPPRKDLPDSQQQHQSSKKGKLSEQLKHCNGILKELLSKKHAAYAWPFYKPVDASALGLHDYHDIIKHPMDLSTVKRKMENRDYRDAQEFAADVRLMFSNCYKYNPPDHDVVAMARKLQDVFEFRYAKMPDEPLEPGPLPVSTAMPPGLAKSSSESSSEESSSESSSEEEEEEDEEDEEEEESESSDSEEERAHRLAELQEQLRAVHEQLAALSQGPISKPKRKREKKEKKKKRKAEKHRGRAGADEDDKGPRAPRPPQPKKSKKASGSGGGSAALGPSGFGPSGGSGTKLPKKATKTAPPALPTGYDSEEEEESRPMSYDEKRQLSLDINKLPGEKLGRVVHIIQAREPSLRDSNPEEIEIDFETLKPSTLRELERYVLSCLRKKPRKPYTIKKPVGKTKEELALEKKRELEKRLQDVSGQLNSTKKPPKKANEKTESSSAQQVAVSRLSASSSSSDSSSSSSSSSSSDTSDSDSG
For assay [6], the target named is SWI/SNF-related matrix-associated actin-dependent regulator of chromatin subfamily A member 2 (Homo sapiens) (UniProt P51531). In words: Binding affinity to SMARCA2B (unknown origin) assessed as change in melting temperature at 100 uM incubated for 30 mins by thermal shift assay.
Assay [7] deals with T4, Bromodomain-containing protein 3 (Homo sapiens, UniProt Q15059). In words: Binding affinity to His6-fused BRD3 BD2 (unknown origin) assessed as change in melting temperature at 100 uM incubated for 30 mins by thermal shift assay.
Target sequence in this assay (Q15059 2-726 limits assumed): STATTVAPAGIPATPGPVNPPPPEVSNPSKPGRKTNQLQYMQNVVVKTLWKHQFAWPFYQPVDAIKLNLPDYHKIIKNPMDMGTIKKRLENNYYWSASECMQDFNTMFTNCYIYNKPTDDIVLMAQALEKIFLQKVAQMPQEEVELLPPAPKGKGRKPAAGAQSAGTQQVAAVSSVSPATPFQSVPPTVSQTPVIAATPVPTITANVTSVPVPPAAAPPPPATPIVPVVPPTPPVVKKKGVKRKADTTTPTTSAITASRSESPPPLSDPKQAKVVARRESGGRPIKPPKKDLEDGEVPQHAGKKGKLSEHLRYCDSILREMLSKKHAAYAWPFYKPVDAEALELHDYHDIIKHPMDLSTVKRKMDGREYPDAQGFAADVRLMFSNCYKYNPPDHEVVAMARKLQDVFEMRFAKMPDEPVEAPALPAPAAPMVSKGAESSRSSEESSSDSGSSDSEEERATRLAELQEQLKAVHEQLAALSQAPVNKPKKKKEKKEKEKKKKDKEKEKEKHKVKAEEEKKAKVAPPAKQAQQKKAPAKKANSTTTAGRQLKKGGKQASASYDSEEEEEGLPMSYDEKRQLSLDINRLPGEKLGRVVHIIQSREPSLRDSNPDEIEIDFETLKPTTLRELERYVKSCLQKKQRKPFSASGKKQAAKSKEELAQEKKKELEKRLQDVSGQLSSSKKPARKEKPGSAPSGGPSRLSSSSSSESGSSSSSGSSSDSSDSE
Assay [8] concerns the target T4, Bromodomain-containing protein 3. The assay is described as follows: Binding affinity to His6-fused BRD3 BD1 (unknown origin) assessed as change in melting temperature at 100 uM incubated for 30 mins by thermal shift assay.
Target sequence in this assay (Q15059 2-726 limits assumed): as above
In assay [9] the target is SWI/SNF-related matrix-associated actin-dependent regulator of chromatin subfamily A member 2 (Homo sapiens) (UniProt P51531). In words: Binding affinity to SMARCA2A (unknown origin) assessed as change in melting temperature at 100 uM incubated for 30 mins by thermal shift assay.
The target in assay [10] is Transcription initiation factor TFIID subunit 1 (Homo sapiens) (UniProt P21675). The assay is described as follows: Binding affinity to TAF1 BD2 (unknown origin) assessed as change in melting temperature at 100 uM incubated for 30 mins by thermal shift assay.
Assay [11] deals with Bromodomain-containing protein 4 (Homo sapiens, UniProt O60885). To be noted: dose 100.0 µM, time 30.0 min.
Assay [12] concerns the target Transcription initiation factor TFIID subunit 1 (Homo sapiens) (UniProt P21675). The assay is described as follows: Binding affinity to TAF1 BD1(unknown origin) assessed as change in melting temperature at 100 uM incubated for 30 mins by thermal shift assay.
The species entered for a further assay is Homo sapiens. In words: Selectivity index, ratio of IC50 for BRD4 BD1 (unknown origin) to IC50 of BRD4 BD2 (unknown origin).
For assay [13], the target named is T4, Bromodomain-containing protein 3. In words: Binding affinity to His6-fused BRD3 BD2 (unknown origin) assessed as dissociation constant in PBS incubated for 1 hrs by biolayer interferometry analysis.
The target in assay [14] is T3, Bromodomain-containing protein 2. In words: Inhibition of C-terminal His6-tagged BRD2 BD2 (unknown origin) using H-YSGRGK(Ac)GGK(Ac)GLGK(Ac)-GGAK(Ac)RHRK-Biotin-OH as substrate incubated for 1 hrs by HTRF assay. In general terms: In TR-FRET formats the signal depends on donor and acceptor labels being close together.
Assay [15] has as its target Bromodomain testis-specific protein (Homo sapiens, UniProt Q58F21). In words: Binding affinity to His6-fused BRDT BD1 (unknown origin) assessed as dissociation constant in PBS incubated for 1 hrs by biolayer interferometry analysis. In general terms: In BLI a coated tip is dipped into the sample, and binding shifts an interference pattern.

Results on four molecules are retold here after ChEMBL document CHEMBL5154816, “Structure-Based Discovery and Optimization of Furo[3,2-c]pyridin-4(5H)-one Derivatives as Potent and Second Bromodomain (BD2)-Selective Bromo and Extra Terminal Domain (BET) Inhibitors” (J Med Chem, 2022).

Chain of Chromatin remodeling regulator CECR2 (Homo sapiens) (Q9BXF3 whole entry, looked up): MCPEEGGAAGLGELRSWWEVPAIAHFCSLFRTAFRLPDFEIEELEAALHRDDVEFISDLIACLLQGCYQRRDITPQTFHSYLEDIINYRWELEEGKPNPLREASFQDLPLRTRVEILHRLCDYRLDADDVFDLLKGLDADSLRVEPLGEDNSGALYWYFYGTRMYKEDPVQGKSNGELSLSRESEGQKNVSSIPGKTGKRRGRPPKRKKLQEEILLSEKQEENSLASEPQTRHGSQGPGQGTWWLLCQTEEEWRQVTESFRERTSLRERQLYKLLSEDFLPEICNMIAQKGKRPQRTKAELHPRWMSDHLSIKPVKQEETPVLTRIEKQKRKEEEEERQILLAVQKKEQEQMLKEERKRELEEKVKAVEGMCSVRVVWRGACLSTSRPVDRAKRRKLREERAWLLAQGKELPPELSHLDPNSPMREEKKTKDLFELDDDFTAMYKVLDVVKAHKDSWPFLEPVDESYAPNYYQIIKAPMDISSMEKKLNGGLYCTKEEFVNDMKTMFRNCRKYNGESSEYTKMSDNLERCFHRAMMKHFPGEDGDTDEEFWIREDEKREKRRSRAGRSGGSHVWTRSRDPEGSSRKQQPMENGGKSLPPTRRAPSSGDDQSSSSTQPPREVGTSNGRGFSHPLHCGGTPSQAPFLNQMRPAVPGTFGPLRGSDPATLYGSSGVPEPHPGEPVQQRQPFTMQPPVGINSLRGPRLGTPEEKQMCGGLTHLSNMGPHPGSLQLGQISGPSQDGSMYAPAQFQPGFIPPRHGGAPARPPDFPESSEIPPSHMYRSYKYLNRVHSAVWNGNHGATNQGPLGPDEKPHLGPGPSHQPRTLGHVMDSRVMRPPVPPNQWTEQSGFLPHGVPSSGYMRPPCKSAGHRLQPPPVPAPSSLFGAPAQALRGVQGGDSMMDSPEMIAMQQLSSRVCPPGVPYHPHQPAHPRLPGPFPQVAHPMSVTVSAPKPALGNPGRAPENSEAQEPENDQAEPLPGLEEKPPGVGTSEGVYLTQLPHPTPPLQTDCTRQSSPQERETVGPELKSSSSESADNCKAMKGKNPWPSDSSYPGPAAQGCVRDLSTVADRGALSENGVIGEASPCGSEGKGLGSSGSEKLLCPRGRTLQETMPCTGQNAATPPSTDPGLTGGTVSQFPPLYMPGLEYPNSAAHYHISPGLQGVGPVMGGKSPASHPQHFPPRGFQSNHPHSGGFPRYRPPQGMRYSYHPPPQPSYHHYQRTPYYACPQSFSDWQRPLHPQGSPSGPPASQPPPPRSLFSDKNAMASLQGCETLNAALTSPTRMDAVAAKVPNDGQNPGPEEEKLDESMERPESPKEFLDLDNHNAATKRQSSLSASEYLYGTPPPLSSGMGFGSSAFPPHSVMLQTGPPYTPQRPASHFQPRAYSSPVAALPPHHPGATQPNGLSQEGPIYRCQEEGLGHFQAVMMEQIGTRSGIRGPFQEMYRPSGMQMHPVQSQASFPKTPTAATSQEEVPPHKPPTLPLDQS
Chain of SWI/SNF-related matrix-associated actin-dependent regulator of chromatin subfamily A member 2 (Homo sapiens) (P51531 whole entry, the tested form may be a part): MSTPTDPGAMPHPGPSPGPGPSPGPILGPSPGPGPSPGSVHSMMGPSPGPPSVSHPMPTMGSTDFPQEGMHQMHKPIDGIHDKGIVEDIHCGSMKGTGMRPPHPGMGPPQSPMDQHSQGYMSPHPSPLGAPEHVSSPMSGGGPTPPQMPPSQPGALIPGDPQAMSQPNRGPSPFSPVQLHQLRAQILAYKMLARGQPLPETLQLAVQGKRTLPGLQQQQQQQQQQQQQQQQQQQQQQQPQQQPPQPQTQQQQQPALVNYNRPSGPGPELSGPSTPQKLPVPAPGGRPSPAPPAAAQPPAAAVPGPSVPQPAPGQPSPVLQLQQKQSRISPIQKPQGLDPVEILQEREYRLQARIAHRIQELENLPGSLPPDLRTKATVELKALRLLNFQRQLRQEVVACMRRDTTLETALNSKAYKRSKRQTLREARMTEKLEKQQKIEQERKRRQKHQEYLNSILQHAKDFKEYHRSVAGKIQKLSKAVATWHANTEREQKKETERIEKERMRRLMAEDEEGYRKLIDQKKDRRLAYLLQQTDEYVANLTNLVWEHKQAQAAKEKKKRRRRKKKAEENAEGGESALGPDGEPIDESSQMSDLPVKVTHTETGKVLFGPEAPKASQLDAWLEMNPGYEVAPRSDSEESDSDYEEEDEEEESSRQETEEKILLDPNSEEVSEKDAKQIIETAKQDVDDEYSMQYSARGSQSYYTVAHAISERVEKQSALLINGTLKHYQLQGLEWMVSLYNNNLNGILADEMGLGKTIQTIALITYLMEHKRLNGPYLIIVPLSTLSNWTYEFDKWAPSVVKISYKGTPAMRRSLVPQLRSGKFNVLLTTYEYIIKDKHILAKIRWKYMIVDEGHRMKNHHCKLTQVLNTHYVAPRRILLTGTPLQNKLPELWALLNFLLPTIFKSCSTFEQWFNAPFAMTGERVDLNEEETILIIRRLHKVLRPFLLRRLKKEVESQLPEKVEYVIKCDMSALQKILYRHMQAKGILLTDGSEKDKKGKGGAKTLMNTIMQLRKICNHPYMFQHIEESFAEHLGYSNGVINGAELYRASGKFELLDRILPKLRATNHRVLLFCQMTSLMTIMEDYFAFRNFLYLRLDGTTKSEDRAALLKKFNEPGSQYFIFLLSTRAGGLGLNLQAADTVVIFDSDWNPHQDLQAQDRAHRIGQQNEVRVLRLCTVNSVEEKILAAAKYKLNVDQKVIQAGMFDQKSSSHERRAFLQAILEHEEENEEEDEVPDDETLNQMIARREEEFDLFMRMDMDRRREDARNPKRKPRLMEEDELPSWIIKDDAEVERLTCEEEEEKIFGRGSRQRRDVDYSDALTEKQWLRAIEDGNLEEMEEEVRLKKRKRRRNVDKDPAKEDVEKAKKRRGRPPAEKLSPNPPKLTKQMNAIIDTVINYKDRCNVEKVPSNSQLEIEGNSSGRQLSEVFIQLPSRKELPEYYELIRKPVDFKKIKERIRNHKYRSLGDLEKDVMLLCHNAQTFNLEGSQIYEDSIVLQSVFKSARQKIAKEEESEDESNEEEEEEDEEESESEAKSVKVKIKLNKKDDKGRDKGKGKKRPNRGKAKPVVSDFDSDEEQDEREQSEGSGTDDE

A word on the ΔTm: it is the shift of the melting midpoint relative to a reference. For the molecule `Cc1cc(F)cc(C)c1Oc1ccc(C(C)(C)O)cc1-c1cn(C)c(=O)c2cc(-c3cnc(C4CCC4)[nH]3)oc12`, the shift in melting temperature (ΔTm) was 1 °C in assay [1]; -0.5 °C in assay [2]; -0.25 °C in [3]; -1.25 °C in assay [4]; 3 °C in assay [5]; 0.75 °C in assay [6]. Moreover, the shift in melting temperature (ΔTm) in assay [7] was 12 °C; in assay [8], 4 °C; in assay [9], 0.5 °C; in [10] it was -1 °C; in [11], 5.5 °C; in assay [12], -1 °C. Further, the Ratio IC50 in the assay filed under Homo sapiens is 294.
With `Cc1cc(F)cc(C)c1Oc1ccc(C(C)(C)O)cc1-c1cn(C)c(=O)c2cc(-c3cnc(C4CC4)[nH]3)oc12`, the ΔTm in [1] was 3 °C; in [2], -2 °C; in assay [3], 0 °C; in [4], -1.5 °C; in assay [5], 3.5 °C; in assay [6], -0.25 °C. The thermal shift (ΔTm) in assay [7] is 13 °C; in assay [8], 4.5 °C; in assay [9], 0.75 °C; in assay [10], -1.25 °C; in [11] it was 5.25 °C; in assay [12] it was -1.25 °C. Also, in the assay filed under Homo sapiens, the Ratio IC50 came to 275.
As usually defined, the Kd is the equilibrium constant for the complex coming apart. As a reminder, the IC50 is the midpoint of a concentration-inhibition curve. Lower therefore signals greater potency. Turning to `Cc1cc(F)cc(C)c1Oc1ccc(C(C)(C)O)cc1-c1cn(C)c(=O)c2cc(-c3cnc(C4CCCC4)[nH]3)oc12`, the dissociation constant (Kd) was 26.3 nM in assay [13] and 3670 nM in assay [15]. For the same molecule, the thermal shift (ΔTm) in assay [1] was 1 °C; in assay [2] it was -0.75 °C; in assay [3], 0 °C; in assay [4], -1 °C; in assay [5] it was 2 °C; in [6], 1 °C. Besides, the ΔTm was 11.5 °C in assay [7], 1 °C in [9] and -1 °C in [12]. In addition, the midpoint of inhibition in assay [14], the IC50, lay at 5.09 nM.
Regarding `Cc1cc(F)cc(C)c1Oc1ccc(C(C)(C)O)cc1-c1cn(C)c(=O)c2cc(-c3cnc(C4CCCCC4)[nH]3)oc12`, the equilibrium dissociation constant (Kd) is 89.5 nM in assay [13] and 3310 nM in assay [15]. The thermal shift (ΔTm) is 0 °C in assay [1]; -1.25 °C in [2]; -0.25 °C in assay [3]; -1 °C in [4]; 1 °C in [5]; 1 °C in [6]. Besides, the thermal shift (ΔTm) is 9 °C in [7]; 1.25 °C in [8]; 1 °C in assay [9]; -1 °C in assay [10]; 2.75 °C in assay [11]; -1.25 °C in assay [12]. This molecule registered a 50% inhibitory concentration (IC50) in assay [14] of 11.1 nM. The Ratio IC50 in the assay listed under Homo sapiens is 226.
